Reference: ChEMBL document CHEMBL3885861, “Open TG-GATES”

Species on record: Rattus norvegicus
Assay: Open TG-GATES - Regimen: Daily Repeat
Type: toxicity, organism-based, Sprague-Dawley
Design: regimen Daily Repeat, gender Male, age 6 weeks
Conditions: in vivo, po, route gavage; for APTT / Bas / Eos / Fbg / Hb / Ht / Lym / MCH / MCHC / MCV / Mono / Neu / PT / Plat / RBC / Ret / WBC: tissue Blood; for KIDNEY_L / KIDNEY_R / KIDNEY_TOTAL: tissue Kidney; for LIVER: tissue Liver; for A/G / ALP / ALT / AST / BUN / CRE / Ca / Cl / DBIL / GLC / IP / K / LDH / Na / PL / RALB / TBIL / TC / TG / TP / gamma-GTP: tissue Plasma
[1] = 50 mg/kg, 72 h, dose level Middle, time 3 day
[2] = 50 mg/kg, […], dose level Middle, time 7 day
[3] = 50 mg/kg, […], dose level Middle, time 14 day
[4] = 50 mg/kg, […], dose level Middle, time 28 day
[5] = 150 mg/kg, 72 h, dose level High, time 3 day
[6] = 150 mg/kg, […], dose level High, time 7 day
[7] = 150 mg/kg, […], dose level High, time 14 day
[8] = 150 mg/kg, […], dose level High, time 28 day

Nc1nc(N)c2nc(-c3ccccc3)c(N)nc2n1
TERMINAL_BW [1]: 241.1 g
APTT [1]: 15.9 s
Bas [1]: 0%
Eos [1]: 1%
Fbg [1]: 334.2 mg/dL
Hb [1]: 13.9 g/dL
Ht [1]: 40.9%
Lym [1]: 74.4%
MCH [1]: 21.2 pg
MCHC [1]: 34.2%
MCV [1]: 62.1 fL
Mono [1]: 2.8%
Neu [1]: 21.4%
PT [1]: 13.8 s
Plat [1]: 119.3 x10_4/uL
RBC [1]: 658 x10_4/ul
Ret [1]: 5.6%
WBC [1]: 93.5 x10_2/uL
KIDNEY_L [1]: 1.1 g
KIDNEY_R [1]: 1.1 g
KIDNEY_TOTAL [1]: 2.2 g
LIVER [1]: 11.5 g
A/G [1]: 0.9
ALP [1]: 1521.8 IU/L
ALT [1]: 42.2 IU/L
AST [1]: 65.2 IU/L
BUN [1]: 15.2 mg/dL
CRE [1]: 0.2 mg/dL
Ca [1]: 10.9 mg/dL
Cl [1]: 105.4 meq/L
DBIL [1]: 0.008 mg/dL
GLC [1]: 175 mg/dL
IP [1]: 8.2 mg/dL
K [1]: 3.9 meq/L
LDH [1]: 56.2 IU/L
Na [1]: 143.6 meq/L
PL [1]: 166.2 mg/dL
RALB [1]: 2.6 g/dL
TBIL [1]: 0.04 mg/dL
TC [1]: 85 mg/dL
TG [1]: 126.2 mg/dL
TP [1]: 5.5 g/dL
gamma-GTP [1]: 1 IU/L
TERMINAL_BW [2]: 280.2 g
TERMINAL_BW [3]: 333.9 g
TERMINAL_BW [4]: 402.9 g
APTT [2]: 16.3 s
Bas [2]: 0%
Eos [2]: 1%
Fbg [2]: 335.4 mg/dL
Hb [2]: 13.8 g/dL
Ht [2]: 42.3%
Lym [2]: 77.8%
MCH [2]: 20.2 pg
MCHC [2]: 32.6%
MCV [2]: 62.1 fL
Mono [2]: 2%
Neu [2]: 18.6%
PT [2]: 13.9 s
Plat [2]: 134.1 x10_4/uL
RBC [2]: 680.6 x10_4/ul
Ret [2]: 5.3%
WBC [2]: 121.8 x10_2/uL
APTT [3]: 18.2 s
Bas [3]: 0.2%
Eos [3]: 1%
Fbg [3]: 312.2 mg/dL
Hb [3]: 14.5 g/dL
Ht [3]: 44.6%
Lym [3]: 80.6%
MCH [3]: 19.6 pg
MCHC [3]: 32.6%
MCV [3]: 59.9 fL
Mono [3]: 2.6%
Neu [3]: 15.4%
PT [3]: 12.9 s
Plat [3]: 127.2 x10_4/uL
RBC [3]: 744.2 x10_4/ul
Ret [3]: 4.2%
WBC [3]: 93 x10_2/uL
APTT [4]: 18.2 s
Bas [4]: 0.4%
Eos [4]: 1.4%
Fbg [4]: 283.2 mg/dL
Hb [4]: 15.4 g/dL
Ht [4]: 45.4%
Lym [4]: 80%
MCH [4]: 19.1 pg
MCHC [4]: 33.9%
MCV [4]: 56.2 fL
Mono [4]: 1.6%
Neu [4]: 16.2%
PT [4]: 13.5 s
Plat [4]: 105.5 x10_4/uL
RBC [4]: 807 x10_4/ul
Ret [4]: 2.4%
WBC [4]: 101.1 x10_2/uL
KIDNEY_L [2]: 1.2 g
KIDNEY_R [2]: 1.2 g
KIDNEY_TOTAL [2]: 2.4 g
KIDNEY_L [3]: 1.3 g
KIDNEY_R [3]: 1.3 g
KIDNEY_TOTAL [3]: 2.6 g
KIDNEY_L [4]: 1.4 g
KIDNEY_R [4]: 1.4 g
KIDNEY_TOTAL [4]: 2.8 g
LIVER [2]: 12.7 g
LIVER [3]: 14.7 g
LIVER [4]: 15.8 g
A/G [2]: 0.9
ALP [2]: 1449.6 IU/L
ALT [2]: 46.8 IU/L
AST [2]: 66.6 IU/L
BUN [2]: 17.6 mg/dL
CRE [2]: 0.2 mg/dL
Ca [2]: 11 mg/dL
Cl [2]: 106 meq/L
DBIL [2]: 0.012 mg/dL
GLC [2]: 179 mg/dL
IP [2]: 7.7 mg/dL
K [2]: 4.3 meq/L
LDH [2]: 60 IU/L
Na [2]: 142.4 meq/L
PL [2]: 154.6 mg/dL
RALB [2]: 2.6 g/dL
TBIL [2]: 0.07 mg/dL
TC [2]: 77.2 mg/dL
TG [2]: 128.2 mg/dL
TP [2]: 5.5 g/dL
gamma-GTP [2]: 1.2 IU/L
A/G [3]: 0.9
ALP [3]: 1311.6 IU/L
ALT [3]: 43.2 IU/L
AST [3]: 64.2 IU/L
BUN [3]: 18 mg/dL
CRE [3]: 0.2 mg/dL
Ca [3]: 10.6 mg/dL
Cl [3]: 104.8 meq/L
DBIL [3]: 0.014 mg/dL
GLC [3]: 191.8 mg/dL
IP [3]: 8.1 mg/dL
K [3]: 3.7 meq/L
LDH [3]: 69.6 IU/L
Na [3]: 144.4 meq/L
PL [3]: 149.2 mg/dL
RALB [3]: 2.7 g/dL
TBIL [3]: 0.07 mg/dL
TC [3]: 70.2 mg/dL
TG [3]: 137 mg/dL
TP [3]: 5.9 g/dL
gamma-GTP [3]: 1 IU/L
A/G [4]: 0.8
ALP [4]: 1251 IU/L
ALT [4]: 39.2 IU/L
AST [4]: 62.4 IU/L
BUN [4]: 17.6 mg/dL
CRE [4]: 0.2 mg/dL
Ca [4]: 10.7 mg/dL
Cl [4]: 104.2 meq/L
DBIL [4]: 0.014 mg/dL
GLC [4]: 188.2 mg/dL
IP [4]: 6.7 mg/dL
K [4]: 3.8 meq/L
LDH [4]: 52.6 IU/L
Na [4]: 143.6 meq/L
PL [4]: 139.2 mg/dL
RALB [4]: 2.7 g/dL
TBIL [4]: 0.06 mg/dL
TC [4]: 64.6 mg/dL
TG [4]: 154 mg/dL
TP [4]: 6.1 g/dL
gamma-GTP [4]: 1 IU/L
TERMINAL_BW [5]: 243.7 g
APTT [5]: 16.1 s
Bas [5]: 0%
Eos [5]: 1%
Fbg [5]: 366.6 mg/dL
Hb [5]: 13.8 g/dL
Ht [5]: 40.7%
Lym [5]: 76.6%
MCH [5]: 21 pg
MCHC [5]: 33.8%
MCV [5]: 62 fL
Mono [5]: 2.8%
Neu [5]: 18.8%
PT [5]: 14 s
Plat [5]: 131.8 x10_4/uL
RBC [5]: 657.6 x10_4/ul
Ret [5]: 5.1%
WBC [5]: 90.9 x10_2/uL
KIDNEY_L [5]: 1 g
KIDNEY_R [5]: 1.1 g
KIDNEY_TOTAL [5]: 2.1 g
LIVER [5]: 11.3 g
A/G [5]: 0.9
ALP [5]: 1846.8 IU/L
ALT [5]: 44 IU/L
AST [5]: 67.2 IU/L
BUN [5]: 17.6 mg/dL
CRE [5]: 0.2 mg/dL
Ca [5]: 11.1 mg/dL
Cl [5]: 105.8 meq/L
DBIL [5]: 0.008 mg/dL
GLC [5]: 180.6 mg/dL
IP [5]: 7.9 mg/dL
K [5]: 3.9 meq/L
LDH [5]: 59 IU/L
Na [5]: 143.6 meq/L
PL [5]: 171 mg/dL
RALB [5]: 2.6 g/dL
TBIL [5]: 0.032 mg/dL
TC [5]: 90.6 mg/dL
TG [5]: 120.8 mg/dL
TP [5]: 5.6 g/dL
gamma-GTP [5]: 1 IU/L
TERMINAL_BW [6]: 274.8 g
TERMINAL_BW [7]: 323.6 g
TERMINAL_BW [8]: 378.7 g
APTT [6]: 16.4 s
Bas [6]: 0.2%
Eos [6]: 1%
Fbg [6]: 354.2 mg/dL
Hb [6]: 13.5 g/dL
Ht [6]: 41.1%
Lym [6]: 78.2%
MCH [6]: 20.1 pg
MCHC [6]: 32.8%
MCV [6]: 61.2 fL
Mono [6]: 2.4%
Neu [6]: 18.2%
PT [6]: 14.1 s
Plat [6]: 132.7 x10_4/uL
RBC [6]: 672.4 x10_4/ul
Ret [6]: 5.4%
WBC [6]: 114.8 x10_2/uL
APTT [7]: 20.2 s
Bas [7]: 0%
Eos [7]: 1%
Fbg [7]: 329.6 mg/dL
Hb [7]: 14.2 g/dL
Ht [7]: 43.2%
Lym [7]: 77.4%
MCH [7]: 19.5 pg
MCHC [7]: 33%
MCV [7]: 59.1 fL
Mono [7]: 2.2%
Neu [7]: 18.8%
PT [7]: 13 s
Plat [7]: 113.5 x10_4/uL
RBC [7]: 730.6 x10_4/ul
Ret [7]: 3.3%
WBC [7]: 94.3 x10_2/uL
APTT [8]: 18.6 s
Bas [8]: 0.4%
Eos [8]: 1%
Fbg [8]: 320 mg/dL
Hb [8]: 15 g/dL
Ht [8]: 44.1%
Lym [8]: 78.8%
MCH [8]: 18.6 pg
MCHC [8]: 33.9%
MCV [8]: 54.9 fL
Mono [8]: 2.2%
Neu [8]: 16.8%
PT [8]: 13.3 s
Plat [8]: 127.8 x10_4/uL
RBC [8]: 803.2 x10_4/ul
Ret [8]: 2.1%
WBC [8]: 110.6 x10_2/uL
KIDNEY_L [6]: 1.3 g
KIDNEY_R [6]: 1.3 g
KIDNEY_TOTAL [6]: 2.6 g
KIDNEY_L [7]: 1.4 g
KIDNEY_R [7]: 1.4 g
KIDNEY_TOTAL [7]: 2.8 g
KIDNEY_L [8]: 1.7 g
KIDNEY_R [8]: 1.7 g
KIDNEY_TOTAL [8]: 3.4 g
LIVER [6]: 12.6 g
LIVER [7]: 13.2 g
LIVER [8]: 14.1 g
A/G [6]: 0.9
ALP [6]: 1286 IU/L
ALT [6]: 41.2 IU/L
AST [6]: 63.2 IU/L
BUN [6]: 18.8 mg/dL
CRE [6]: 0.2 mg/dL
Ca [6]: 11 mg/dL
Cl [6]: 104.2 meq/L
DBIL [6]: 0.014 mg/dL
GLC [6]: 188 mg/dL
IP [6]: 7.7 mg/dL
K [6]: 4 meq/L
LDH [6]: 62 IU/L
Na [6]: 143 meq/L
PL [6]: 149.6 mg/dL
RALB [6]: 2.6 g/dL
TBIL [6]: 0.072 mg/dL
TC [6]: 77 mg/dL
TG [6]: 126.8 mg/dL
TP [6]: 5.6 g/dL
gamma-GTP [6]: 1.2 IU/L
A/G [7]: 0.8
ALP [7]: 1273.4 IU/L
ALT [7]: 41.6 IU/L
AST [7]: 66.4 IU/L
BUN [7]: 21.4 mg/dL
CRE [7]: 0.3 mg/dL
Ca [7]: 10.4 mg/dL
Cl [7]: 105.8 meq/L
DBIL [7]: 0.012 mg/dL
GLC [7]: 185.2 mg/dL
IP [7]: 7.5 mg/dL
K [7]: 3.7 meq/L
LDH [7]: 58.2 IU/L
Na [7]: 145 meq/L
PL [7]: 143.2 mg/dL
RALB [7]: 2.7 g/dL
TBIL [7]: 0.07 mg/dL
TC [7]: 75 mg/dL
TG [7]: 101.6 mg/dL
TP [7]: 5.9 g/dL
gamma-GTP [7]: 1.2 IU/L
A/G [8]: 0.8
ALP [8]: 1120 IU/L
ALT [8]: 41.8 IU/L
AST [8]: 65.6 IU/L
BUN [8]: 21.4 mg/dL
CRE [8]: 0.3 mg/dL
Ca [8]: 10.7 mg/dL
Cl [8]: 106 meq/L
DBIL [8]: 0.008 mg/dL
GLC [8]: 178.2 mg/dL
IP [8]: 6.7 mg/dL
K [8]: 3.7 meq/L
LDH [8]: 44.6 IU/L
Na [8]: 144.8 meq/L
PL [8]: 160.4 mg/dL
RALB [8]: 2.7 g/dL
TBIL [8]: 0.064 mg/dL
TC [8]: 85.2 mg/dL
TG [8]: 106.2 mg/dL
TP [8]: 6.1 g/dL
gamma-GTP [8]: 1.4 IU/L
